Data reported in patent US20250000814A1 (DONG-A ST CO., LTD., priority 2021, published 2025).
Counter-ions that a name gives are not always drawn.

How the values were obtained:
[1] = Solubility evaluation for the solubilizer propylene glycol monocaprylate; conditions: for Propylene glycol monocaprylate solubility: 25° C., 24 hours, 50 mg as memantine free base added to 1 mL
Protocol: The resulting mixture was treated in a shaking constant temperature bath at 25° C. for 24 hours.
<Liquid Chromatography Conditions>

[2] = Oil phase skin permeability screening, Franz diffusion cell; format: in vitro ADME; conditions: 200 ul of 50 mg/mL salt in propylene glycol monocaprylate, human cadaver skin; for Skin penetration rate: 7 days
Protocol: A pH 7.4 phosphate buffer containing 10% ethanol and 0.02% sodium azide as an aqueous solution was added to the receptor chamber of the Franz diffusion cell, and with the temperature maintained at 32±0.5° C., it was rotated at 600 rpm and stirred.

[3] = cited from earlier work

Molecule | Propylene glycol monocaprylate solubility [1] [µg/mL] | other results
Memantine Hemi-Malate | <5000 | 
Memantine Myristate |  | Skin permeability for 7 days [2]: 1083 ug/cm2; Skin penetration rate [2]: 6 ug/cm2/hr
CC12CC3CC(C)(C1)CC(N)(C3)C2 [hydrochloride, Memantine hydrochloride, reference compound] |  | solubility at 24 h ([1]; 25 °C, oil or lipid, thermodynamic from solid): < 5000 µg/mL
Memantine Hemi-Maleate | <5000 | 
CC12CC3CC(C)(C1)CC(N)(C3)C2.CC12CC3CC(C)(C1)CC(N)(C3)C2.O=C(O)CCCCCCC(=O)O [hemi-suberate, Memantine Hemi-Suberate] | <5000 | 
CC12CC3CC(C)(C1)CC(N)(C3)C2.CC12CC3CC(C)(C1)CC(N)(C3)C2.O=C(O)CCCCCC(=O)O [hemi-pimelate, Memantine Hemi-Pimelate] | <5000 | 
Memantine Hemi-Naphthalene Disulfonate | <5000 | 
CC12CC3CC(C)(C1)CC(N)(C3)C2 [free base, Memantine free base] |  | log P, the partition coefficient [3]: 3.28
Memantine Hemi-Fumarate | <5000 | 
CC(=O)CCC(=O)O.CC12CC3CC(C)(C1)CC(N)(C3)C2 [levulinate, Memantine Levulinate, reference compound] |  | Skin permeability for 7 days [2]: 3661 ug/cm2; Skin penetration rate [2]: 22 ug/cm2/hr
